Laboratory results reported in PMC8225045, “Chemical Synthesis and Structure-Activity Relationship Study Yield Desotamide a Analogues with Improved Antibacterial Activity” (Marine Drugs, 2021).
Converted amounts (≈) assume the structure as drawn. Where two headings read alike, the source gives them in different places. Non-standard residues stand in square brackets, D forms with d. Residues, ends and D or L forms follow the SMILES beside them. aIle = CC[C@@H](C)[C@H](N)C(=O)O

Tests used:
[1] = test system: Staphylococcus haemolyticus LJH9; assay: microbe, parasite or virus in culture
Description: (§1) All the synthesized cyclopeptides (7–19) and the desotamide A (1) isolated from S. scopuliridis SCSIO ZJ46 were evaluated for antibacterial activities against a series of Gram-positive pathogens including […] Staphylococcus aureus ATCC29213, Bacillus subtilis BS01, Micrococcus luteus ML01, Enterococcus faecalis ATCC29212; 3 drug-resistant poultry pathogens Staphylococcus simulans LJH13, Enterococcus gallinarum LJH11, Staphylococcus haemolyticus LJH9; 4 clinical methicillin-resistant Staphylococcus aureus (MRSA) shhs-E1, MRSA 16339, MRSA 745524, MRSA 16162. Their antibacterial activities against the […] pathogens Escherichia coli ATCC 13,124 and clinical drug-resistant Klebsiella pneumonia 15580 were also assayed.
(§2) Ampicillin, vancomycin and polymyxin were used as control. The maximum test concentrations for all the compounds were 128 μg/mL.

[2] = test system: Enterococcus gallinarum LJH11; assay: microbe, parasite or virus in culture
Description: as §1, §2

[3] = test system: Micrococcus luteus ML01; assay: microbe, parasite or virus in culture; conditions: ML01
Description: as §1, §2

[4] = test system: Bacillus subtilis BS01; assay: microbe, parasite or virus in culture; conditions: BS01
Description: as §1, §2

[5] = test system: MRSA 745524; assay: microbe, parasite or virus in culture
Description: as §1, §2

[6] = test system: methicillin-resistant Staphylococcus aureus (MRSA) shhsE1; assay: microbe, parasite or virus in culture
Description: as §1, §2

[7] = test system: MRSA 16339; assay: microbe, parasite or virus in culture
Description: as §1, §2

[8] = test system: MRSA 16162; assay: microbe, parasite or virus in culture
Description: as §1, §2

[9] = test system: Staphylococcus aureus ATCC 29213; assay: microbe, parasite or virus in culture
Description: as §1, §2

[10] = test system: Staphylococcus simulans LJH13; assay: microbe, parasite or virus in culture
Description: as §1, §2

[11] = test system: Enterococcus faecalis ATCC 29212; assay: microbe, parasite or virus in culture
Description: as §1, §2

[12] = test system: Gram-positive pathogens; conditions: for Gram positive antibacterial activity for desotamides (in words): Figure 2
Description: as §1, §2

[13] = test system: Klebsiella pneumoniae 15580; conditions: 15580
Description: as §1, §2

[14] = Staphylococcus haemolyticus, LJH9
[15] = Enterococcus gallinarum, GALLINARUM
[16] = Staphylococcus aureus, ATCC29213
[17] = Enterococcus faecalis, ATCC29212
[18] = clinical MRSA shhsE1, two-fold serial dilution, Mueller-Hinton broth, 96-well plate, CLSI-based, maximum test concentration 128 μg/mL

| Compound | MIC [13] | MIC [1] | MIC [3] | MIC [4] | MIC [5]; 745524 | MIC [6, 18] | MIC [7]; 16339 | MIC [8]; 16162 | MIC ([9]; ATCC 29213) | MIC [10] | MIC ([11]; ATCC 29212) | Gram positive antibacterial activity for desotamides (in words) ([12]; summary) | MIC [2] | MIC ([6]; methicillin-resistant shhsE1) | other results |
| --- | --- | --- | --- | --- | --- | --- | --- | --- | --- | --- | --- | --- | --- | --- | --- |
| CC1(C)S[C@@H]2[C@H](NC(=O)[C@H](N)c3ccccc3)C(=O)N2[C@H]1C(=O)O [Amp, ampicillin, reference compound] | – | – | – | – | – | – | – | – | – | – | – | – | – | – | MIC [1, 14]: 16 µg/mL (≈ 45.8 µM); MIC [2, 15]: 2 µg/mL (≈ 5.72 µM); MIC ([3]; Micrococcus luteus): 0.25 µg/mL (≈ 0.715 µM); MIC ([4]; Bacillus subtilis): < 0.0625 µg/mL; MIC ([5]; Staphylococcus aureus, MRSA): 16 µg/mL (≈ 45.8 µM); MIC ([6]; Staphylococcus aureus, MRSA): 64 µg/mL (≈ 183 µM); MIC ([7]; Staphylococcus aureus, MRSA): 64 µg/mL (≈ 183 µM); MIC ([8]; Staphylococcus aureus, MRSA): 32 µg/mL (≈ 91.6 µM); MIC [9, 16]: 1 µg/mL (≈ 2.86 µM); MIC ([10]; Staphylococcus simulans, LJH13): 0.25 µg/mL (≈ 0.715 µM); MIC [11, 17]: 4 µg/mL (≈ 11.4 µM) |
| CC(C)C[C@@H]1NC(=O)[C@H](Cc2c[nH]c3ccccc23)NC(=O)[C@@H](CCCCN)NC(=O)[C@H](CC(N)=O)NC(=O)[C@H](C(C)C)NC(=O)[C@@H](CC(C)C)NC1=O [Compound 9, Wollamide B2] (cyclo([dK]WL[dL]VN)) | >128 µg/mL | 32 µg/mL (≈ 42.4 µM) | 16 µg/mL (≈ 21.2 µM) | 16 µg/mL (≈ 21.2 µM) | 32 µg/mL (≈ 42.4 µM) | 32 µg/mL (≈ 42.4 µM) | 32 µg/mL (≈ 42.4 µM) | 32 µg/mL (≈ 42.4 µM) | 32 µg/mL (≈ 42.4 µM) | 16 µg/mL (≈ 21.2 µM) | 64 µg/mL (≈ 84.9 µM) | – | – | – | fold increase of anti-Gram-positive activity compared to wollamide B (7) ([12]; Gram-positive bacteria): 2–4 folds; Gram positive antibacterial activity for wollamides (in words) ([12]; summary, Figure 3): 2–4-Fold more active than 7; MIC ([2]; Enterococcus gallinarum LJH11, drug-resistant poultry pathogen, two-fold serial dilution, Mueller-Hinton broth, 96-well plate, CLSI-based, maximum test concentration 128 μg/mL): 128 µg/mL (≈ 170 µM) |
| CC[C@@H](C)[C@@H]1NC(=O)[C@H](CC(N)=O)NC(=O)[C@@H](CCCNC(=N)N)NC(=O)[C@H](Cc2c[nH]c3ccccc23)NC(=O)[C@H](CC(C)C)NC(=O)[C@@H](CC(C)C)NC1=O [Compound 10, Desotamide A1] (cyclo(LW[dR]N[aIle][dL])) | >128 µg/mL | >128 µg/mL | 64 µg/mL (≈ 80.4 µM) | >128 µg/mL | >128 µg/mL | – | >128 µg/mL | >128 µg/mL | >128 µg/mL | >128 µg/mL | >128 µg/mL | Inactive | >128 µg/mL | >128 µg/mL | – |
| CC[C@@H](C)[C@@H]1NC(=O)[C@H](CC(N)=O)NC(=O)[C@@H](CCCCN)NC(=O)[C@H](Cc2c[nH]c3ccccc23)NC(=O)[C@H](CC(C)C)NC(=O)[C@@H](CC(C)C)NC1=O [Compound 11, Desotamide A2] (cyclo(LW[dK]N[aIle][dL])) | >128 µg/mL | >128 µg/mL | >128 µg/mL | >128 µg/mL | >128 µg/mL | – | >128 µg/mL | >128 µg/mL | >128 µg/mL | >128 µg/mL | >128 µg/mL | Inactive | >128 µg/mL | >128 µg/mL | – |
| CC[C@@H](C)[C@@H]1NC(=O)[C@H](CC(N)=O)NC(=O)[C@@H](Cc2c[nH]cn2)NC(=O)[C@H](Cc2c[nH]c3ccccc23)NC(=O)[C@H](CC(C)C)NC(=O)[C@@H](CC(C)C)NC1=O [Compound 12, Desotamide A3] (cyclo(LW[dH]N[aIle][dL])) | >128 µg/mL | >128 µg/mL | >128 µg/mL | >128 µg/mL | >128 µg/mL | – | >128 µg/mL | >128 µg/mL | >128 µg/mL | >128 µg/mL | >128 µg/mL | Inactive | >128 µg/mL | >128 µg/mL | – |
| CC[C@H](C)[C@@H]1NC(=O)[C@H](CC(N)=O)NC(=O)[C@@H](Cc2c[nH]cn2)NC(=O)[C@H](Cc2c[nH]c3ccccc23)NC(=O)[C@H](CC(C)C)NC(=O)[C@@H](CC(C)C)NC1=O [Compound 14, Desotamide A5] (cyclo(I[dL]LW[dH]N)) | >128 µg/mL | 64 µg/mL (≈ 82.4 µM) | 64 µg/mL (≈ 82.4 µM) | 64 µg/mL (≈ 82.4 µM) | 64 µg/mL (≈ 82.4 µM) | – | 64 µg/mL (≈ 82.4 µM) | 64 µg/mL (≈ 82.4 µM) | 64 µg/mL (≈ 82.4 µM) | 64 µg/mL (≈ 82.4 µM) | 64 µg/mL (≈ 82.4 µM) | 2-Fold less active than 1 | 128 µg/mL (≈ 165 µM) | 64 µg/mL (≈ 82.4 µM) | fold less potent MIC value compared to 1 ([12]; Gram-positive bacteria, generally): 2 fold |
| CC(C)C[C@@H]1NC(=O)[C@H](CC(N)=O)NC(=O)CNC(=O)[C@H](Cc2c[nH]c3ccccc23)NC(=O)[C@H](CC(C)C)NC(=O)[C@@H](CC(C)C)NC1=O [Compound 16, Desotamide A7] (cyclo(NL[dL]LWG)) | >128 µg/mL | >128 µg/mL | >128 µg/mL | >128 µg/mL | >128 µg/mL | >128 µg/mL | >128 µg/mL | >128 µg/mL | >128 µg/mL | >128 µg/mL | >128 µg/mL | Inactive | >128 µg/mL | – | MIC values against Gram-positive pathogens (summary over the panel) ([12]; series of Gram-positive pathogens including MRSA, summary of Table 1): > 128 µg/mL |
| CC(C)C[C@@H]1NC(=O)[C@H](Cc2c[nH]c3ccccc23)NC(=O)[C@@H](CCCCN)NC(=O)[C@H](CC(N)=O)NC(=O)[C@H](CC(C)C)NC(=O)[C@@H](CC(C)C)NC1=O [Compound 17, Desotamide A8] (cyclo([dK]WL[dL]LN)) | >128 µg/mL | 64 µg/mL (≈ 83.3 µM) | 16 µg/mL (≈ 20.8 µM) | 32 µg/mL (≈ 41.7 µM) | 32 µg/mL (≈ 41.7 µM) | 64 µg/mL (≈ 83.3 µM) | 64 µg/mL (≈ 83.3 µM) | 64 µg/mL (≈ 83.3 µM) | 32 µg/mL (≈ 41.7 µM) | 32 µg/mL (≈ 41.7 µM) | 128 µg/mL (≈ 167 µM) | Slightly less active than 1 | >128 µg/mL | – | – |
| CN[C@H](CC(C)C)C(=O)N[C@H]1C(=O)N[C@@H](CC(N)=O)C(=O)N[C@H]2C(=O)N[C@H]3C(=O)N[C@H](C(=O)N[C@H](C(=O)O)c4cc(O)cc(O)c4-c4cc3ccc4O)[C@H](O)c3ccc(c(Cl)c3)Oc3cc2cc(c3O[C@@H]2O[C@H](CO)[C@@H](O)[C@H](O)[C@H]2O[C@H]2C[C@](C)(N)[C@H](O)[C@H](C)O2)Oc2ccc(cc2Cl)[C@H]1O [Van, vancomycin, reference compound] | – | – | – | – | – | – | – | – | – | – | – | – | – | – | MIC [1, 14]: 2 µg/mL (≈ 1.38 µM); MIC [2, 15]: 8 µg/mL (≈ 5.52 µM); MIC ([3]; Micrococcus luteus): 0.25 µg/mL (≈ 0.173 µM); MIC ([4]; Bacillus subtilis): 0.125 µg/mL (≈ 0.0863 µM); MIC ([5]; Staphylococcus aureus, MRSA): 0.5 µg/mL (≈ 0.345 µM); MIC ([6]; Staphylococcus aureus, MRSA): 0.5 µg/mL (≈ 0.345 µM); MIC ([7]; Staphylococcus aureus, MRSA): 0.25 µg/mL (≈ 0.173 µM); MIC ([8]; Staphylococcus aureus, MRSA): 0.5 µg/mL (≈ 0.345 µM); MIC [9, 16]: 0.5 µg/mL (≈ 0.345 µM); MIC ([10]; Staphylococcus simulans, LJH13): 0.25 µg/mL (≈ 0.173 µM); MIC [11, 17]: 4 µg/mL (≈ 2.76 µM) |
